Here are results for eleven molecules from patent US10689362B2, “Quinoxaline compounds as type III receptor tyrosine kinase inhibitors” (Development Center for Biotechnology, priority 2016, dated 2020).

By inhibition is commonly meant the drop in the measured response relative to a control, in per cent. Usually IC50 stands for the concentration at which inhibition is half-maximal.

The subject of assay [1] is osteoclast precursors (osteoclast differentiation). Kind of assay: Osteoclast tartrate-resistant acid phosphatase assay. The note with it: 168 h, at 1 μM treatment, 7 days, RANKL and M-CSF, read-out: inhibition activity against osteoclast differentiation. Type of assay: cell-based. The method, then:
A serial dilution of test compound was dispensed into a 96-well black clear bottom plate. Compound was diluted by the addition of DMEM media supplemented with 10% characterized fetal bovine serum. Diluted compound was transferred to a 96-well black clear bottom plate. Three thousand osteoclast precursors (Lonza, Walkersville, Md.) were added per well in growth medium containing Receptor Activator of Nuclear Factor Kappa-beta ligand (RANKL) and M-CSF. […] At the end of the incubation period, 50 μL of supernatant from each well was transferred to a clear 96-well plate. Tartrate-resistant acid phosphatase activity in the supernatant samples was determined using an acid phosphatase assay kit (Sigma, St. Louis, Mo.). Absorbance was measured at 550 nm using a plate reader. […] The Inhibition activity against osteoclast differentiation for each compound at 1 μM treatment in duplicate was measured.

In assay [2] the test system is CSF-1-dependent M-NFS-60 mouse myeloid leukemia cell. Kind of assay: M-NFS-60 cell proliferation assay (CellTiter-96). Type of assay: cell-based. The note with it: Cytotoxicity, M-NFS-60 cells, 72 hours. An outline of the steps:
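Growth inhibition was measured as absorbance at 490 nm after 4 h with CellTiter 96 AQueous One reagent. Beforehand, M-NFS-60 cells (2000/well, CSF-1-dependent) were treated with a compound dilution series for 72 h following overnight plating at 37 °C, 5% CO2.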

In assay [3] the test system is THP-1 human acute monocytic leukemia cell harboring NRAS G12D mutation. Kind of assay: THP-1 cell proliferation assay (counter screen, CellTiter-96). Type of assay: cell-based. The note with it: Cytotoxicity, THP-1 cells (counter screen), 72 hours. An outline of the steps:
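Growth inhibition read as 490 nm absorbance after 4 h with CellTiter96 AQueous One reagent, following 72 h compound exposure at rising concentrations. THP-1 (NRAS G12D) cells plated at 5000 per well and left overnight at 37 °C, 5% CO2 before dosing.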
(Counterscreens check selectivity or assay interference.)

The subject of assay [4] is MV4-11 human acute myeloid leukemia cell with FLT3-ITD mutation. In words: MV4-11 cell proliferation assay (CellTiter-96). Type of assay: cell-based. The note with it: Cytotoxicity, MV4-11 cells, 72 hours. An outline of the steps:
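Growth inhibition read as absorbance at 490 nm after 4 hours with CellTiter96 AQueous One reagent. Before that, FLT3-ITD-dependent MV4-11 cells (6500 cells/well, overnight at 37° C., 5% CO2) received a rising compound concentration series for 72 hours.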

Assay [5] deals with c-KIT kinase (Homo sapiens (Human), UniProt P10721). In words: c-KIT kinase assay (radiometric). The note with it: class symbol. Type of assay: biochemical. In outline: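 Recombinant c-Kit (20 ng) with 2 μg Poly-(Glu4:Tyr1) in MOPS pH 7.0 buffer with MgCl2/MnCl2, 10 μM ATP plus [^33P]-ATP, 4% DMSO final, 60 min at 30° C. Stopped with phosphoric acid, filter-captured and scintillation counted; IC50 from curve fit.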

Assay [6] concerns Kasumi-1 human acute myeloid leukemia cell with c-KIT N822K activating mutation. Kind of assay: Kasumi-1 cell proliferation assay (CellTiter-96). Type of assay: cell-based. The note with it: Cytotoxicity, Kasumi-1 cells, 72 hours. In outline: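 After 72 h of treatment with a compound dilution series, growth of c-KIT N822K-driven Kasumi-1 cells (64000 per well, plated the day before) was read as 490 nm absorbance. This followed a 4 h incubation with CellTiter96 AQueous One reagent.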

The target of assay [7] is PDGFRβ kinase (Homo sapiens (Human), UniProt P09619). Kind of assay: PDGFRβ kinase assay (radiometric). The format is biochemical. An outline of the steps: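 Radiometric assay: recombinant PDGFRβ with poly(Glu4:Tyr1) in MOPS pH 7.0 buffer containing Mg2+/Mn2+, 10 μM ATP plus [33P]-ATP, and compound at 4% DMSO final. Incubated 60 min at 30° C, stopped with phosphoric acid, filter-captured and scintillation-counted. IC50 from curve fitting.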

Assay [8] deals with FLT3 kinase (Homo sapiens (Human), UniProt P36888). In words: FLT3 kinase assay (radiometric). The format is biochemical. In outline: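 Recombinant FLT3 (5 ng) phosphorylating poly(Glu4:Tyr1) (2 μg) with 10 μM ATP plus [^33P]-ATP in MOPS pH 7.0 buffer, 4% DMSO final, 60 min at 30° C. Reaction stopped with phosphoric acid, filter-captured and scintillation-counted; IC50 derived from dose-response.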

The target of assay [9] is CSF-1R kinase (Homo sapiens (Human), UniProt P07333). Kind of assay: CSF-1R kinase assay (AlphaScreen). Type of assay: biochemical. The note with it: class symbol. Here is the method:
Inhibition of CSF-1R kinase activity by a test compound disclosed herein was estimated by AlphaScreen (PerkinElmer). […] Reactions were incubated at 30° C. for 45 min and stopped by adding 5 μL of 50 mM EDTA. Analysis of resulting product using an AlphaScreen kit, and counted with Enspire Alpha (PerkinElmer). […] The IC50 values of quinoxaline compounds of this invention against CSF-1R kinase were determined using the GraphPad Prism 5 software.
In general terms: Bead proximity is the source of the signal in Alpha formats.

CSF-1R kinase, sequence (P07333 20-972): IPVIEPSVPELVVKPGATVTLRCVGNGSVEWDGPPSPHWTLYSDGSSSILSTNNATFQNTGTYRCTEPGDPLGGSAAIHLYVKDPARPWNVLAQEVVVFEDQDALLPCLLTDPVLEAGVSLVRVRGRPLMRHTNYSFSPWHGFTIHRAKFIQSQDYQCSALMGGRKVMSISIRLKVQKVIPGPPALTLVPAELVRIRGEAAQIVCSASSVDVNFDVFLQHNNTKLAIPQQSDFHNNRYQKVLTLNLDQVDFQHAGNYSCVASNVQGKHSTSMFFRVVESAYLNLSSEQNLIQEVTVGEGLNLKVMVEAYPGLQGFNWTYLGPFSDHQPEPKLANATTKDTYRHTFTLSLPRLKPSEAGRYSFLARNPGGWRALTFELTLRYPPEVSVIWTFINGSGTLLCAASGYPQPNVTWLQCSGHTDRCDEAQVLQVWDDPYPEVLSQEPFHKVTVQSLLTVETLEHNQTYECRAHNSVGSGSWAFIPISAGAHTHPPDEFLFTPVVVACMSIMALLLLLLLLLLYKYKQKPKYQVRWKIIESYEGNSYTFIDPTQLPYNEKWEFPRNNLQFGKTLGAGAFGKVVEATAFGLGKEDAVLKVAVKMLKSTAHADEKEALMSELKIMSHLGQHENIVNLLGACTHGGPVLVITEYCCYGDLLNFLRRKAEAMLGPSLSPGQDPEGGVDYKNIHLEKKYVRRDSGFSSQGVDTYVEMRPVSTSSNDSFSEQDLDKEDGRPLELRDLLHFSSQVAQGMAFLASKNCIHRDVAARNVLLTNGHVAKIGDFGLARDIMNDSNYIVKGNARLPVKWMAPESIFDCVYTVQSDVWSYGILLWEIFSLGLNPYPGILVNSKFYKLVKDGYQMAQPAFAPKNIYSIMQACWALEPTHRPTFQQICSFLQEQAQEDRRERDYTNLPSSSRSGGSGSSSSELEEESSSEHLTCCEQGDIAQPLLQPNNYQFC
PDGFRβ kinase, sequence (P09619 33-1106): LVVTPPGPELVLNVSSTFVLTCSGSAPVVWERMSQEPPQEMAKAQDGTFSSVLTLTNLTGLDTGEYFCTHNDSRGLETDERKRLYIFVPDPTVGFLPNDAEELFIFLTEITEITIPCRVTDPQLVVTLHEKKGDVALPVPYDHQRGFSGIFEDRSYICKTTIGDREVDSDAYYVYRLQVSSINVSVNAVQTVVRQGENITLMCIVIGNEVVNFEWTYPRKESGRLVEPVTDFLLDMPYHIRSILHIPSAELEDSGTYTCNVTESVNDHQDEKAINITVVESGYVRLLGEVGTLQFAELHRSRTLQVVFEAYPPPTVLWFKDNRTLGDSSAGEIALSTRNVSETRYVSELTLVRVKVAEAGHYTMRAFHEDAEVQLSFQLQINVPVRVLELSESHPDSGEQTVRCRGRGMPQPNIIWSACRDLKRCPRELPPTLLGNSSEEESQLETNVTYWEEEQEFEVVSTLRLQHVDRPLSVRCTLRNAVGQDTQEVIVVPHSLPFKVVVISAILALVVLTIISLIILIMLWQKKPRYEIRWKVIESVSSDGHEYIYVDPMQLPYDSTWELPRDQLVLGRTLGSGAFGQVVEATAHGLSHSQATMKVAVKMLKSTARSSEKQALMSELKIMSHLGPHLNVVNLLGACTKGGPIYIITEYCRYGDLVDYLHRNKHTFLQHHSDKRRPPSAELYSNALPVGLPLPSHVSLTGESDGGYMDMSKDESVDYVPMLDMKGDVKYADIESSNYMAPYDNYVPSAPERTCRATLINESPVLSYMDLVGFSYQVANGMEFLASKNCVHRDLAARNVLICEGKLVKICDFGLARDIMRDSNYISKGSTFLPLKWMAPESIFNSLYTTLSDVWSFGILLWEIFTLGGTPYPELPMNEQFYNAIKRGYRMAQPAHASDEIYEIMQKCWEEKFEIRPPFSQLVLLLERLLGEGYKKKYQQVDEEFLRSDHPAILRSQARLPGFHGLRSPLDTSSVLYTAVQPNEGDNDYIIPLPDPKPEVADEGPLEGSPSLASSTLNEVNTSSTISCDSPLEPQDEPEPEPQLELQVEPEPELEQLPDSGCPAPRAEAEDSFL
FLT3 kinase, sequence (P36888 27-993): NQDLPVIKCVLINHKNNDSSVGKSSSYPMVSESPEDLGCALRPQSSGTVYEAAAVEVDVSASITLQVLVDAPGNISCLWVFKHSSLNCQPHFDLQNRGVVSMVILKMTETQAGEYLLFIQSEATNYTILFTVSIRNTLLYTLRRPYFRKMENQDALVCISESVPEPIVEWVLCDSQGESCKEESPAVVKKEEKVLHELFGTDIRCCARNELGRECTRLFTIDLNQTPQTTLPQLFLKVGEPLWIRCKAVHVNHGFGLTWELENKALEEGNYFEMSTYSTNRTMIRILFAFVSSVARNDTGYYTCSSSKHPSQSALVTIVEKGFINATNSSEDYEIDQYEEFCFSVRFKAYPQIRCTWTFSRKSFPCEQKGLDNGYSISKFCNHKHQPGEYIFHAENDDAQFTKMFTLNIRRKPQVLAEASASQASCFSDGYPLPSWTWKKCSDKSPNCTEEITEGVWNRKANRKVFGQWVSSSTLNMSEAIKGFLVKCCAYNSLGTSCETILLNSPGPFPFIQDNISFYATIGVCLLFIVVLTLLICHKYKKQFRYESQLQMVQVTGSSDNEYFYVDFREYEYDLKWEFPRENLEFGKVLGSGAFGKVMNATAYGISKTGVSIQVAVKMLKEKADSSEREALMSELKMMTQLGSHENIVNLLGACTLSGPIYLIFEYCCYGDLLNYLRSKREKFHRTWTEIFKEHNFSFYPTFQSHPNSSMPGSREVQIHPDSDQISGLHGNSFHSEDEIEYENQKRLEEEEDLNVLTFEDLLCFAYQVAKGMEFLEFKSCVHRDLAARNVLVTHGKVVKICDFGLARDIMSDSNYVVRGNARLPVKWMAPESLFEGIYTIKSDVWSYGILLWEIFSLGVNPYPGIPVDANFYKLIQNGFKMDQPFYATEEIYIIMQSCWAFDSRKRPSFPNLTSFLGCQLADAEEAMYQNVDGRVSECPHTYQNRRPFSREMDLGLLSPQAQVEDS
c-KIT kinase, sequence (P10721 26-976): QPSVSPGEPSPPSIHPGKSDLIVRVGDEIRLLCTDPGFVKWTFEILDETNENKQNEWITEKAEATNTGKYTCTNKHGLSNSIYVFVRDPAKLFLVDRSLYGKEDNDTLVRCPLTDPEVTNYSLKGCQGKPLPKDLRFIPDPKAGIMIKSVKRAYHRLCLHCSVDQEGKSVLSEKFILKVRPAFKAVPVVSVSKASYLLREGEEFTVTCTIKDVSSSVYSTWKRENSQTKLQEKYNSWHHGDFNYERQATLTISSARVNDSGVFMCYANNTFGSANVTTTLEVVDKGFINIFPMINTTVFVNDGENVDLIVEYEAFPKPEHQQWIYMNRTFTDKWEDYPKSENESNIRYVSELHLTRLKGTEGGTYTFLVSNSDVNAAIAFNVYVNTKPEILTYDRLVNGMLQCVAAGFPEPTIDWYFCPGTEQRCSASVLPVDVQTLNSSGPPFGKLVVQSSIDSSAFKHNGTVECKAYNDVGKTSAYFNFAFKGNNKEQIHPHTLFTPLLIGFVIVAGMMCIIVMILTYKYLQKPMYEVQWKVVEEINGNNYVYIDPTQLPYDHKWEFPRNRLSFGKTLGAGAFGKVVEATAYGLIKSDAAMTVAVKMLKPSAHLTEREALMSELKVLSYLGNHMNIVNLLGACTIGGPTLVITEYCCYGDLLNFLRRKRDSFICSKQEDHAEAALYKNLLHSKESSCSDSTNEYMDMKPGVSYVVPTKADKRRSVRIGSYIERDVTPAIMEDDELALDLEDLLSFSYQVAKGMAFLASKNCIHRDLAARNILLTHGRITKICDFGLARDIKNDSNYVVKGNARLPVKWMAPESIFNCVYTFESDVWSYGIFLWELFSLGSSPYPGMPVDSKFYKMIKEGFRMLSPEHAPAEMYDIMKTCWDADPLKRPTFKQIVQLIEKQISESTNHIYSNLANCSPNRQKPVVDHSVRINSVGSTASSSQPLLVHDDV

Turning to `COc1cc(Nc2ccc3ncc(N4CCOCC4)nc3c2C#N)ccc1OCc1ccc(C)s1` [Example 124, 6-((3-methoxy-4-((5-methylthiophen-2-yl)methoxy)phenyl)amino)-3-morpholinoquinoxaline-5-carbonitrile], the inhibition at 1 µM in [1] was more than 50%. In addition, the IC50 in assay [2] is less than 300 nM; in assay [3], 1000 to 10000 nM; in assay [4], 1000 to 10000 nM; in assay [5], less than 100 nM; in assay [6], 300 to 1000 nM; in assay [7] (bound), more than 1000 nM. The IC50 in assay [8] (bound) is more than 1000 nM; in [9], less than 100 nM.

Turning to `COc1ccc(COc2ccc(Nc3ccc4ncc(N5CCNCC5)nc4c3C#N)cc2OC)cc1` [Example 90, 6-((3-methoxy-4-((4-methoxybenzyl)oxy)phenyl)amino)-3-(piperazin-1-yl)quinoxaline-5-carbonitrile], the inhibition at 1 µM in assay [1] is more than 50%. The IC50 is less than 300 nM in [2]; more than 10000 nM in assay [3]; more than 10000 nM in [4]; less than 100 nM in [5]; 300 to 1000 nM in [6]; more than 1000 nM in assay [7] (bound). For the same molecule, the IC50 is more than 1000 nM in assay [8] (bound) and less than 100 nM in assay [9].

`COc1cc(N(C)c2ccc3ncc(N4CCOCC4)nc3c2C#N)ccc1OCc1ccc(C2CC2)nc1` [Example 130, 6-((4-((6-cyclopropylpyridin-3-yl)methoxy)-3-methoxyphenyl)(methyl)amino)-3-morpholinoquinoxaline-5-carbonitrile]: in [1], the inhibition at 1 µM was more than 50%. Besides, the IC50 is less than 300 nM in assay [2]; more than 10000 nM in [3]; 1000 to 10000 nM in assay [4]; less than 100 nM in assay [5]; 300 to 1000 nM in assay [6]; more than 1000 nM in assay [7] (bound). Also, the values for the half-inhibitory concentration (IC50) in [8] (bound) and in assay [9] were more than 1000 nM and less than 100 nM, respectively.

With `COc1cc(Nc2ccc3ncc(N4CC(N(C)C)C4)nc3c2C#N)ccc1OCc1ccc(C)nc1` [Example 136, 3-(3-(dimethylamino)azetidin-1-yl)-6-((3-methoxy-4-((6-methylpyridin-3-yl)methoxy)phenyl)amino)quinoxaline-5-carbonitrile], the inhibition at 1 µM in assay [1] was more than 50%. Besides, the IC50 in [2] was 300 to 1000 nM; in assay [3], more than 10000 nM; in assay [4] it was 1000 to 10000 nM; in [5], less than 100 nM; in assay [6], 1000 to 10000 nM; in [7] (bound) it was more than 1000 nM. The IC50 in [8] (bound) was more than 1000 nM; in [9], less than 100 nM.

As to `COc1cc(Nc2ccc3ncc(N4CCOCC4)nc3c2C#N)ccc1OCc1ccc(C2CC2)nc1` [Example 120, 6-((4-((6-cyclopropylpyridin-3-yl)methoxy)-3-methoxy-phenyl)amino)-3-morpholinoquinoxaline-5-carbonitrile], the inhibition at 1 µM in [1] is more than 50%. For the same molecule, the IC50 in assay [2] is less than 300 nM; in assay [3], more than 10000 nM; in assay [4], more than 10000 nM; in assay [5], less than 100 nM; in assay [6], less than 300 nM; in assay [7] (bound) it was more than 1000 nM. Further, the IC50 is more than 1000 nM in assay [8] (bound) and less than 100 nM in [9].

Regarding `COc1ccc(COc2ccc(Nc3ccc4ncc(N5CCOCC5)nc4c3C#N)c(F)c2)cc1` [Example 53, 6-((2-fluoro-4-((4-methoxybenzyl)oxy)phenyl)amino)-3-morpholinoquinoxaline-5-carbonitrile], in assay [1], the inhibition at 1 µM was more than 50%. The IC50 is 300 to 1000 nM in [2]; more than 10000 nM in assay [3]; less than 300 nM in assay [4]; 300 to 1000 nM in assay [5]; 1000 to 10000 nM in [6]; more than 1000 nM in assay [7] (bound). Moreover, the concentration for half-maximal inhibition (IC50) in assay [8] (class symbol) was 300 to 1000 nM; in assay [9], less than 100 nM.

Turning to `COc1cc(Nc2ccc3ncc(N4CC(C)(OC)C4)nc3c2C#N)ccc1OCc1ccc(C)nc1` [Example 138, 3-(3-methoxy-3-methylazetidin-1-yl)-6-((3-methoxy-4-((6-methyl-pyridin-3-yl)methoxy)phenyl)amino)quinoxaline-5-carbonitrile], the inhibition at 1 µM in [1] is more than 50%. For the same molecule, the concentration for half-maximal inhibition (IC50) in assay [2] was less than 300 nM; in assay [3] it was more than 10000 nM; in [4], 1000 to 10000 nM; in [5] it was less than 100 nM; in assay [6] it was less than 300 nM; in [7] (bound), more than 1000 nM. The IC50 was more than 1000 nM in assay [8] (bound) and less than 100 nM in assay [9].

For the molecule `COc1ccc(COc2ccc(Nc3ccc4ncc(N5CCOCC5)nc4c3C#N)cc2)cc1` [Example 38, 6-((4-((4-methoxybenzyl)oxy)phenyl)amino)-3-morpholinoquinoxaline-5-carbonitrile], the inhibition at 1 µM in [1] was more than 50%. The IC50 in [2] is less than 300 nM; in assay [3], more than 10000 nM; in assay [4], less than 300 nM; in [5], less than 100 nM; in assay [6] it was 300 to 1000 nM; in [7] (class symbol) it was 100 to 300 nM. Besides, the results for the IC50 in assay [8] (class symbol) and in [9] were 100 to 300 nM and less than 100 nM, respectively.

Regarding `COc1ccc(COc2ccc(Nc3ccc4ncc(N5CCN(C(C)=O)CC5)nc4c3C#N)cc2OC)cc1` [Example 72, 3-(4-acetylpiperazin-1-yl)-6-((3-methoxy-4-((4-methoxybenzyl)oxy)phenyl)amino)quinoxaline-5-carbonitrile], the inhibition at 1 µM in assay [1] was more than 50%. The concentration for half-maximal inhibition (IC50) in assay [2] is less than 300 nM; in assay [3], more than 10000 nM; in assay [4], more than 10000 nM; in [5], less than 100 nM; in [6], less than 300 nM; in assay [7] (class symbol) it was 300 to 1000 nM. Besides, the values for the IC50 in assay [8] (bound) and in assay [9] were more than 1000 nM and less than 100 nM, respectively.

Turning to `COc1ccc(COc2ccc(Nc3ccc4ncc(N5CCC(OC(C)=O)CC5)nc4c3C#N)cc2OC)cc1` [Example 68, 1-(8-cyano-7-((3-methoxy-4-((4-methoxybenzyl)oxy)phenyl)amino)quinoxalin-2-yl)piperidin-4-yl acetate], the inhibition at 1 µM in assay [1] is more than 50%. Moreover, the IC50 is less than 300 nM in [2]; more than 10000 nM in [3]; 1000 to 10000 nM in [4]; less than 100 nM in assay [5]; less than 300 nM in assay [6]; more than 1000 nM in assay [7] (bound). Moreover, the IC50 in assay [8] (bound) was more than 1000 nM; in assay [9], less than 100 nM.

As to `COc1ccc(COc2ccc(Nc3ccc4ncc(N5CCOCC5)nc4c3C#N)cc2OC)nc1` [Example 132, 6-((3-methoxy-4-((5-methoxypyridin-2-yl)methoxy)phenyl)amino)-3-morpholinoquinoxaline-5-carbonitrile], the inhibition at 1 µM in assay [1] is more than 50%. In addition, the IC50 in assay [2] was 300 to 1000 nM; in assay [3] it was more than 10000 nM; in assay [4], more than 10000 nM; in assay [5] it was 300 to 1000 nM; in [6] it was more than 10000 nM; in assay [7] (bound), more than 1000 nM. The results for the IC50 in [8] (bound) and in assay [9] were more than 1000 nM and less than 100 nM, respectively.
